Laboratory results reported in the supplement of paper PMC13380429.

What was measured:
Conditions in all cases: 72 h
[1] = tested on: Caco-2; test: cell viability relative to DMSO; higher = less toxic
[2] = tested on: Calu-3; test: as above
[3] = tested on: HepG2; test: as above
[4] = tested on: U2OS; test: as above
[5] = tested on: Vero E6; test: as above
[6] = tested on: Caco-2; test: relative viability EC50 (midpoint between 100% and the lowest measured viability); higher = less toxic
[7] = tested on: Calu-3; test: as above
[8] = tested on: HepG2; test: as above
[9] = tested on: U2OS; test: as above
[10] = tested on: Vero E6; test: as above
[11] = tested on: Caco-2; test: drug sensitivity score (DSS) for viability; higher = more toxic; extreme values may be limits of the assay
[12] = tested on: Calu-3; test: as above
[13] = tested on: HepG2; test: as above
[14] = tested on: U2OS; test: as above
[15] = tested on: Vero E6; test: as above

Row | SMILES | cell viability ([1]; 1 nM) [%] | cell viability ([1]; 10 nM) [%] | cell viability ([1]; 100 nM) [%] | cell viability ([1]; 1000 nM) [%] | cell viability ([1]; 10000 nM) [%] | cell viability ([2]; 1 nM) [%] | cell viability ([2]; 10 nM) [%] | cell viability ([2]; 100 nM) [%] | cell viability ([2]; 1000 nM) [%] | cell viability ([2]; 10000 nM) [%] | cell viability ([3]; 1 nM) [%] | cell viability ([3]; 10 nM) [%] | cell viability ([3]; 100 nM) [%] | cell viability ([3]; 1000 nM) [%] | cell viability ([3]; 10000 nM) [%] | cell viability ([4]; 1 nM) [%] | cell viability ([4]; 10 nM) [%] | cell viability ([4]; 100 nM) [%] | cell viability ([4]; 1000 nM) [%] | cell viability ([4]; 10000 nM) [%] | cell viability ([5]; 1 nM) [%] | cell viability ([5]; 10 nM) [%] | cell viability ([5]; 100 nM) [%] | cell viability ([5]; 1000 nM) [%] | cell viability ([5]; 10000 nM) [%] | relative viability EC50 [6] [µM] | relative viability EC50 [7] [µM] | relative viability EC50 [8] [µM] | relative viability EC50 [9] [µM] | relative viability EC50 [10] [µM] | drug sensitivity score [11] | drug sensitivity score [12] | drug sensitivity score [13] | drug sensitivity score [14] | drug sensitivity score [15]
1 | Nc1nc(=O)c2sc(=O)n([C@@H]3O[C@H](CO)[C@@H](O)[C@H]3O)c2[nH]1 | 95.1 | 90.6 | 92.7 | 99.6 | 103 | 94.2 | 110 | 97 | 95.3 | 97.5 | 91.6 | 99.5 | 107 | 107 | 97.2 | 97.2 | 93.6 | 95.4 | 102 | 102 | 94.9 | 98.7 | 97 | 95.8 | 102 | > 10 | > 10 | > 10 | > 10 | > 10 | 0 | 0 | 0 | 0 | 0
2 | CC12CCC(C(Br)C1=O)C2(C)C (stereo unspecified) [3-bromocamphor] | 88.5 | 94.3 | 96.6 | 95.2 | 94.8 |  |  |  |  |  | 94.1 | 87.3 | 94.3 | 101 | 104 | 99.6 | 95.1 | 100 | 97.1 | 101 | 91.8 | 102 | 92.2 | 103 | 104 | > 10 |  | > 10 | > 10 | > 10 | 0 |  | 0 | 0 | 0
3 | O=c1[nH]cnc2ccccc12 [4-HQN] | 86.3 | 94.6 | 91 | 101 | 107 |  |  |  |  |  | 104 | 86.9 | 113 | 99.1 | 108 | 95.2 | 98.7 | 94.5 | 101 | 102 | 99.9 | 93.8 | 94.8 | 92.1 | 100 | > 10 |  | > 10 | > 10 | > 10 | 0 |  | 0 | 0 | 0
4 | COc1ccn2ncc(-c3nc4[nH]nc(NC(=O)c5ccc(F)cc5)c4cc3F)c2c1 [CW-008] | 99.1 | 92.5 | 91.2 | 89.6 | 87.7 | 109 | 107 | 113 | 97.8 | 97.2 | 109 | 102 | 95.2 | 101 | 93.1 |  |  |  |  |  | 93.6 | 98.5 | 99.4 | 97 | 89.1 | > 10 | > 10 | > 10 |  | > 10 | 0.6 | 0 | 0 |  | 0.1
5 | Cc1ccc2c(c1)=C(c1ccccc1)C(C1=NN(C(=O)CCC(=O)O)C(c3ccc(Br)cc3)C1)C(=O)N=2 (stereo unspecified) [DQP-1105] | 94.1 | 97.7 | 97.2 | 90.2 | 96.1 |  |  |  |  |  | 106 | 105 | 97.9 | 95.2 | 105 | 102 | 110 | 97.4 | 100 | 94.9 | 95.9 | 100 | 100 | 97.7 | 96.9 | > 10 |  | > 10 | > 10 | > 10 | 0 |  | 0 | 0 | 0
6 | CCc1c(O)cc(O)c(C(=O)c2ccc(OCCN3CCOCC3)c(OC)c2)c1CC(=O)N(CCOC)CCOC [KW-2478] | 110 | 96.3 | 101 | 77.6 | 46.5 | 104 | 110 | 100 | 76.9 | 53.4 | 108 | 103 | 109 | 69.1 | 5.8 | 98.8 | 95.3 | 100 | 98.3 | 47.5 | 98.6 | 103 | 96.1 | 99.1 | 100 | 1.14 |  | 1.33 | 2.93 | > 10 | 5.9 | 5.4 | 9.6 | 3 | 0
